In article PMC11673488, “Enzyme Inhibitory, Physicochemical, and Phytochemical Properties and Botanical Sources of Honey, Bee Pollen, Bee Bread, and Propolis Obtained from the Same Apiary” (Antioxidants, 2024):
Where a name gives a salt, the structure may show the parent alone.

What was measured:
Type in all cases: biochemical
[1] = tested on: T1, adenosine deaminase (ADA); assay: ADA assay (Blum and Schwedt); conditions: inhibitor in […] ethanol; unreliable (extrapolated beyond highest tested […])
T1 construct: method of Blum and Schwedt
Excerpt: ADA assay (Blum and Schwedt) on adenosine deaminase (ADA)

[2] = target: T2, lipase; assay: p-nitrophenyl caprate hydrolysis; conditions: substrate p-nitrophenyl caprate; inhibitor in […] ethanol
T2 construct: gene PNLIP; p-nitrophenyl caprate assay
Excerpt: p-nitrophenyl caprate hydrolysis on lipase

[3] = target: T3, neuraminidase; assay: neuraminidase assay (Myers et al.); conditions: inhibitor in […] ethanol
T3 construct: gene nanI; method of Myers et al
Excerpt: neuraminidase assay (Myers et al.) on neuraminidase

SMILES: CCCCCC[C@H]([C@H](C)O)n1cnc2c(N)ncnc21 [EHNA.HCl]
- Adenosine Deaminase / IC50 (mg/mL) * [1]: 0.61 ± 0.05 mg/mL

SMILES: CCCCCCCCCCC[C@@H](C[C@@H]1OC(=O)[C@H]1CCCCCC)OC(=O)[C@H](CC(C)C)NC=O [Orlistat]
- Lipase / IC50 (mg/mL) * [2]: 0.00245 ± 0.00010 mg/mL

SMILES: O=c1c(O)c(-c2ccc(O)c(O)c2)oc2cc(O)cc(O)c12 [Quercetin dihydrate]
- Neuraminidase / IC50 (mg/mL) * [3]: 0.00035 ± 0.00005 mg/mL
